Consider 4 compounds from ChEMBL document CHEMBL3751713, “Synthesis and Biological Activity of Mono- and Di-N-acylated Aminoglycosides” (ACS Med Chem Lett, 2015).

Data set [1] concerns Bacillus subtilis. The data set is described as follows: Antimicrobial activity against Gram-positive Bacillus subtilis 168 after 16 to 24 hrs by micro-dilution method. The format is functional. For orientation: Broth dilution looks for growth in wells or tubes with falling amounts of substance.
Data set [2] in a line: Drug metabolism assessed as Escherichia coli AAC(3)-IV mediated compound modification at 100 uM. The format is ADME.
Data set [3] has as its system Bacillus anthracis. The data set is described as follows: Antimicrobial activity against Gram-positive Bacillus anthracis str. Sterne after 16 to 24 hrs by micro-dilution method. The format is functional.
In data set [4] the test system is Mycolicibacterium smegmatis. Kind of data set: Antimicrobial activity against Mycobacterium smegmatis MC2-155 after 16 to 24 hrs by micro-dilution method. The data set is classed as functional. To be noted: str. MC2 155.
In data set [5] the test system is Bacillus cereus. The data set is described as follows: Antimicrobial activity against Gram-positive Bacillus cereus ATCC 17788 after 16 to 24 hrs by micro-dilution method. The format is functional.
The test system of data set [6] is Staphylococcus aureus. Kind of data set: Antimicrobial activity against Gram-positive methicillin-resistant Staphylococcus aureus 2 after 16 to 24 hrs by micro-dilution method. The format is functional.
A short description of data set [7]: Drug metabolism assessed as Mycobacterium tuberculosis Eis mediated compound modification at 100 uM. The data set is classed as ADME.
Data set [8] deals with Bacillus anthracis. Kind of data set: Potency index, ratio MIC of kanamycin to MIC of compound for Bacillus anthracis str. Sterne. The format is functional.
Data set [9] has as its system Pseudomonas aeruginosa. The data set is described as follows: Antimicrobial activity against Gram-negative Pseudomonas aeruginosa PAO1 after 16 to 24 hrs by micro-dilution method. The data set is classed as functional.
Data set [10] has as its system Staphylococcus aureus. Kind of data set: Antimicrobial activity against Gram-positive methicillin-resistant Staphylococcus aureus 1 after 16 to 24 hrs by micro-dilution method. The format is functional.
For data set [11], the system named is Listeria monocytogenes. Kind of data set: Antimicrobial activity against Gram-positive Listeria monocytogenes ATCC 19115 after 16 to 24 hrs by micro-dilution method. The format is functional.
In data set [12] the test system is Haemophilus influenzae. Kind of data set: Antimicrobial activity against Gram-negative Haemophilus influenzae ATCC 51907 after 16 to 24 hrs by micro-dilution method. The format is functional.
The test system of data set [13] is Staphylococcus aureus. The data set is described as follows: Antimicrobial activity against Gram-positive Staphylococcus aureus ATCC 29213 after 16 to 24 hrs by micro-dilution method. The format is functional.
Data set [14] in a line: Drug metabolism assessed as Staphylococcus aureus Bifunctional AAC(6')-1e/APH(2'')-1a mediated compound modification at 100 uM. The format is ADME.
The target in data set [15] is T1, Aminoglycoside 3'-phosphotransferase (Escherichia coli, UniProt P00551).
T1 sequence (P00551 whole entry): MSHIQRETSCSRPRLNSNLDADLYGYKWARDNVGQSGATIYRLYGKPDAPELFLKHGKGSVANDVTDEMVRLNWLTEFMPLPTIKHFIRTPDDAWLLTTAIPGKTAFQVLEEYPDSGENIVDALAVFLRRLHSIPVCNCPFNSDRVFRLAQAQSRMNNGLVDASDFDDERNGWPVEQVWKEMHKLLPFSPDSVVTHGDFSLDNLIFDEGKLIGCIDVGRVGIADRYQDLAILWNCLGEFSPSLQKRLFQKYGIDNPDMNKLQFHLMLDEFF
The data set is described as follows: Drug metabolism assessed as Escherichia coli APH(3')-Ia-mediated compound modification at 100 uM. The data set is classed as ADME.

Data set [16] concerns Mycolicibacterium smegmatis. Kind of data set: Potency index, ratio MIC of tobramycin to MIC of compound for Mycobacterium smegmatis MC2-155. The data set is classed as functional, str. MC2 155.
Data set [17] deals with Bacillus anthracis. Kind of data set: Potency index, ratio MIC of tobramycin to MIC of compound for Bacillus anthracis str. Sterne. The format is functional.

Values after ≈ are worked out from the molar mass of the structure shown. A value given as a limit tells only on which side of the number the result lay.

For `NCC(=O)NC[C@H]1O[C@H](O[C@H]2[C@H](O)[C@@H](O[C@H]3O[C@H](CO)[C@@H](O)[C@H](N)[C@H]3O)[C@H](N)C[C@@H]2N)[C@H](O)[C@@H](O)[C@@H]1O`, the MIC in data set [1] was above 150 µg/mL; in data set [3], 2 µg/mL (≈ 3.69 µM); in data set [4], above 128 µg/mL; in data set [5] it was 150 µg/mL (≈ 277 µM); in data set [6], above 128 µg/mL; in data set [9] it was above 150 µg/mL. Further, the MIC in [10] is above 128 µg/mL; in [11], 150 µg/mL (≈ 277 µM); in data set [12], 150 µg/mL (≈ 277 µM); in [13] it was 16 µg/mL (≈ 29.5 µM). The Drug metabolism entry in [2], in data set [7] and in [14] was “metabolite_detected” throughout. For the same compound, the Ratio in data set [8] was found to be 64.
As for `NCC[C@H](O)C(=O)NC[C@H]1O[C@H](O[C@H]2[C@H](O)[C@@H](O[C@H]3O[C@H](CO)[C@@H](O)[C@H](N)[C@H]3O)[C@H](N)C[C@@H]2N)[C@H](N)C[C@@H]1O`, the Drug metabolism result is given as “metabolite_notdetected” in data set [15], “metabolite_detected” in data set [2], “metabolite_detected” in data set [7] and “metabolite_detected” in [14]. In addition, the MIC in data set [1] is above 150 µg/mL; in data set [3], 2 µg/mL (≈ 3.52 µM); in data set [4], 8 µg/mL (≈ 14.1 µM); in [5], above 150 µg/mL; in data set [6] it was above 128 µg/mL; in [9] it was above 150 µg/mL. Further, the MIC in data set [10] is 16 µg/mL (≈ 28.1 µM); in data set [11], above 150 µg/mL; in data set [12], above 150 µg/mL; in [13], 8 µg/mL (≈ 14.1 µM). Further, the Ratio result is “>=16” in data set [16] and 32 in [17].
Regarding `NCC[C@H](O)C(=O)NC[C@H]1O[C@H](O[C@H]2[C@H](O)[C@@H](O[C@H]3O[C@H](CO)[C@@H](O)[C@H](N)[C@H]3O)[C@H](N)C[C@@H]2N)[C@H](O)[C@@H](O)[C@@H]1O`, the MIC was above 150 µg/mL in data set [1]; 4 µg/mL (≈ 6.83 µM) in [3]; 2 µg/mL (≈ 3.42 µM) in data set [4]; above 150 µg/mL in data set [5]; above 128 µg/mL in [6]; 150 µg/mL (≈ 256 µM) in data set [9]. The MIC in data set [10] is 32 µg/mL (≈ 54.6 µM); in data set [11], above 150 µg/mL; in [12], above 150 µg/mL; in data set [13], 32 µg/mL (≈ 54.6 µM). Besides, the Drug metabolism result in data set [2], in [7] and in data set [14] was “metabolite_detected” each time. Besides, the Ratio in data set [8] was found to be 32.
Consider `NCC(=O)NC[C@H]1O[C@H](O[C@H]2[C@H](O)[C@@H](O[C@H]3O[C@H](CO)[C@@H](O)[C@H](N)[C@H]3O)[C@H](N)C[C@@H]2N)[C@H](N)C[C@@H]1O`, for which the Drug metabolism entry in data set [15] was “metabolite_notdetected”; in data set [2], “metabolite_detected”; in [7] it was “metabolite_detected”; in [14], “metabolite_detected”. For the same compound, the MIC in [1] was 75 µg/mL (≈ 143 µM); in data set [3], 0.5 µg/mL (≈ 0.953 µM); in data set [4], 4 µg/mL (≈ 7.63 µM); in data set [5], 18.8 µg/mL (≈ 35.8 µM); in data set [6], 128 µg/mL (≈ 244 µM); in data set [9] it was 18.8 µg/mL (≈ 35.8 µM). In addition, the MIC in data set [10] turned out to be 4 µg/mL (≈ 7.63 µM); in data set [11] it was 18.8 µg/mL (≈ 35.8 µM); in data set [12], 75 µg/mL (≈ 143 µM); in data set [13], 8 µg/mL (≈ 15.3 µM). For the same compound, the Ratio entry in data set [16] is “>=32”; in [17], 128.
